Structures are written as SMILES. Where only a bound is given, the exact number is not on record here.

This test concerns Phosphorylation of STAT6 in human A549 cells. As to the kind of experiment: Phosphorylated STAT6 (pSTAT6) flow cytometry assay in human A549 cells. The format is cell-based. To be noted: read-out: STAT6 IL4 pSTAT6 assay in A549 cells: Average IC50. From the text: Example 3. Phosphorylated STAT6 (pSTAT6) Flow Cytometry Assay in Human A549 Cells
Phosphorylation of STAT6 in human A549 cells was quantitatively measured using flow cytometry technology.
In general terms: A flow cytometer gives signals particle by particle.

One may read the IC50 as the concentration that gives 50% inhibition. Consider `COc1ccccc1-c1cc(C2=CCCN(C(=O)CCn3ccnn3)C2)c(F)c2[nH]c(C(=O)N3CCN(c4ncc(C(F)(F)F)cc4OC)CC3)cc12` [Example I-941], for which the IC50 is less than 100 nM.

For `CCc1nc(C)ccc1-c1cc(C(=O)N2CCN(c3ncc(F)cc3OC)CC2)cc2cc(C3=CCCN(C(=O)CCn4ccnn4)C3)n(CC3CC3)c12` [Example I-517], the IC50 is less than 100 nM.

As for `COc1c(-c2cc(C3=CCCN(C(=O)CCn4ccnn4)C3)c(F)c3[nH]c(C(=O)N4CCN(C5CC5)CC4)cc23)cnc2ccccc12` [Example I-449], the IC50 is less than 100 nM.

For the compound `COc1ccccc1-c1cc(C2=CCCN(C(=O)CCn3ccnn3)C2)c(F)c2[nH]c(C(=O)N3CCN(c4ncccn4)CC3)cc12` [Example I-863], the half-inhibitory concentration (IC50) is less than 100 nM.

As to `COc1ccc(C)cc1-c1cc(C2=CCCN(C(=O)CCn3ccnn3)C2)cc2[nH]c(C(=O)N(C)C)cc12` [Example I-1057], the 50% inhibitory concentration (IC50) is less than 100 nM.

Take `COc1ccc(-c2cc(C3=CCCN(C(=O)CCn4ccnn4)C3)cc3cc(C(=O)N(C)C)oc23)c(C#N)c1` [Example I-854]: the IC50 was less than 100 nM.

`COc1ccncc1-c1cc(C2=CCCN(C(=O)CCn3ccnn3)C2)c(F)c2[nH]c(C(=O)N3CCN(c4ccc(C#N)cc4OC)CC3)cc12` [Example I-474]: the IC50 is less than 100 nM.

For the compound `CCn1ncc2c1CN(C(=O)c1cc3c(-c4ccc(C5CC5)nc4C)cc(C4=CCCN(C(=O)CCn5ccnn5)C4)c(F)c3[nH]1)C2` [Example I-762], the IC50 was more than 100000 nM.

Consider `COc1ccncc1-c1cc(C2=CCCN(C(=O)CCn3ccnn3)C2)c(F)c2[nH]c(C(=O)N3CCN(c4ncc(Cl)cc4OC)CC3)cc12` [Example I-458], for which the half-maximal inhibitory concentration (IC50) was less than 100 nM.

Consider `COc1ccccc1-c1cc(C2=CCCN(C(=O)CCn3ccnn3)C2)c(F)c2[nH]c(C(=O)N3CCN(c4cccc(OC(F)F)c4)CC3)cc12` [Example I-427], for which the IC50 was less than 100 nM.

Consider `COc1ccccc1-c1cc(C2=CCCN(C(=O)CCn3ccnn3)C2)c(F)c2[nH]c(C(=O)N3CCN(c4nccc5cnccc45)CC3)cc12` [Example I-362], for which the half-inhibitory concentration (IC50) was less than 100 nM.

As for `COc1cc(N)ccc1-c1cc(C2=CCCN(C(=O)CCn3ccnn3)C2)c(F)c2[nH]c(C(=O)N3CCN(c4ncccc4OC)CC3)cc12` [Example I-571], the IC50 is less than 100 nM.

`CCc1cnccc1-c1cc(C(=O)N2CCN(c3ncc(F)cc3OC)CC2)cc2cc(C3=CCCN(C(=O)C(=O)O)C3)n(CC3CC3)c12` [Example I-796]: the IC50 is more than 100000 nM.

For the compound `COc1ccccc1-c1cc(C2=CCCN(C(=O)CCn3ccnn3)C2)c(F)c2[nH]c(C(=O)N3CCN(c4ccc(C#N)cc4F)CC3)cc12` [Example I-1009], the concentration for half-maximal inhibition (IC50) was less than 100 nM.

Turning to `COc1cc(F)cnc1N1CCN(C(=O)c2cc3c(-c4ccc(F)c(C)c4)cc(C4=CCCN(C(=O)CCn5ccnn5)C4)c(F)c3[nH]2)CC1` [Example I-676], the half-inhibitory concentration (IC50) fell in the range of 100 to 1000 nM.

As for `COc1ccccc1-c1cc([C@H]2CCCN(C(=O)CCn3ccnn3)C2)c(F)c2[nH]c(C(=O)N(C)C)cc12` [Example I-1195], the half-maximal inhibitory concentration (IC50) is more than 100000 nM.

With `CCc1cc(C)ncc1-c1cc(C(=O)N2CCN(c3ncc(F)cc3OC)CC2)cc2cc(C3=CCCN(C(=O)CCn4ccnn4)C3)n(CC3CC3)c12` [Example I-533], the IC50 was less than 100 nM.

As for `COc1ccccc1-c1cc(C2=CCCN(C(=O)CCn3ccnn3)C2)c(F)c2sc(C(=O)N(C)C)cc12` [Example I-337, 6-(1-(3-(1H-1,2,3-triazol-1-yl)propanoyl)-1,2,5,6-tetrahydropyridin-3-yl)-7-fluoro-4-(2-methoxyphenyl)-N,N-dimethylbenzo[b]thiophene-2-carboxamide], the half-maximal inhibitory concentration (IC50) is less than 100 nM.

Consider `COc1ccccc1-c1cc(C2=CCCN(C(=O)CCn3ccnn3)C2)c(F)c2[nH]c(C(=O)N3CCN(c4ncnc5[nH]cnc45)CC3)cc12` [Example I-946], for which the IC50 was less than 100 nM.

On to `CCn1ncc2c1CN(C(=O)c1cc(C3CC3)c3c(c1)cc(C1=CCCN(C(=O)CCn4ccnn4)C1)n3CC1CC1)C2` [Example I-768], for which the IC50 was more than 100000 nM.

For the compound `CCS(=O)(=O)N1CCN(C(=O)c2cc3c(-c4ccccc4OC)cc(C4=CCCN(C(=O)CCn5ccnn5)C4)c(F)c3[nH]2)CC1` [Example I-980], the IC50 is less than 100 nM.

Regarding `Cc1ccccc1-c1cc(C2=CCCN(C(=O)CCn3ccnn3)C2)cc2cc(C(=O)N(C)C)oc12` [Example I-1086], the 50% inhibitory concentration (IC50) was less than 100 nM.

On to `COc1ccncc1-c1cc(C2=CCCN(C(=O)CCn3ccnn3)C2)c(F)c2[nH]c(C(=O)N3CC=C(c4ncccc4OC)CC3)cc12` [Example I-452], for which the IC50 was more than 100000 nM.

In the case of `COc1ccncc1-c1cc(C2=CCCN(C(=O)CCc3nccs3)C2)c(F)c2[nH]c(C(=O)N3CCN(c4ncccc4OC)CC3)cc12` [Example I-497], the 50% inhibitory concentration (IC50) was in the range of 10000 to 100000 nM.

Consider `COc1cc(F)cnc1N1CCN(C(=O)c2cc3c(-c4cnccc4C(C)C)cc(C4=CCCN(C(=O)CCn5cccn5)C4)c(F)c3[nH]2)CC1` [Example I-669], for which the IC50 was less than 100 nM.

In the case of `COc1ccccc1-c1cc(C2=CCCN(C(=O)CCn3ccnn3)C2)c(F)c2[nH]c(C(=O)N3CCN(c4ccc(C)cc4)CC3)cc12` [Example I-860], the 50% inhibitory concentration (IC50) was 100 to 1000 nM.

Take `CN(C)C(=O)c1cc2cc(C3=CCCN(C(=O)C(Cn4ccnn4)c4cccc(CO)c4)C3)ccc2o1` (centres unmarked) [Example I-832]: the IC50 was in the range of 1000 to 10000 nM.

Turning to `COc1ccccc1-c1cc(C2=CCCN(C(=O)CCn3ccnn3)C2)c(F)c2[nH]c(C(=O)N3CCN(C4CC5CCC4C5)CC3)cc12` (centres unmarked) [Example I-1181], the half-maximal inhibitory concentration (IC50) was less than 100 nM.

For the compound `COc1ccccc1-c1cc(C2=CCCN(C(=O)CCn3ccnn3)C2)c(F)c2[nH]c(C(=O)N3CCN(c4ncccc4C4CC4)CC3)cc12` [Example I-495], the IC50 was more than 100000 nM.

For `COc1ccccc1-c1cc(C2=CCCN(C(=O)CCn3ccnn3)C2)c(F)c2[nH]c(C(=O)N3CCN(c4c(C)cccc4OC)CC3)cc12` [Example I-913], the half-inhibitory concentration (IC50) lay in the range of 100 to 1000 nM.

Regarding `COc1cccnc1N1CCN(C(=O)c2cc3c(N4CCN(C)CC4)cc(C4=CCCN(C(=O)CCn5ccnn5)C4)c(F)c3[nH]2)CC1` [Example I-557], the half-maximal inhibitory concentration (IC50) is less than 100 nM.

Regarding `CCc1cnc(N2CCN(C(=O)c3cc4c(-c5cnccc5OC)cc(C5=CCCN(C(=O)CCn6ccnn6)C5)c(F)c4[nH]3)CC2)c(OC)c1` [Example I-453], the 50% inhibitory concentration (IC50) was less than 100 nM.

Consider `COc1ccccc1-c1cc(C2=CCCN(C(=O)CCn3ccnn3)C2)c(F)c2[nH]c(C(=O)N3CCCC3)cc12` [Example I-842], for which the 50% inhibitory concentration (IC50) was less than 100 nM.

As to `COCCOc1cccnc1N1CCN(C(=O)c2cc3c(-c4ccccc4OC)cc(C4=CCCN(C(=O)CCn5ccnn5)C4)c(F)c3[nH]2)CC1` [Example I-330], the IC50 is less than 100 nM.

Regarding `C=C(C)c1cc(C2=CCCN(C(=O)CCn3ccnn3)C2)c(F)c2[nH]c(C(=O)N3CCN(c4ncc(F)cc4OC)CC3)cc12` [Example I-675], the IC50 is less than 100 nM.

With `CN(C)C(=O)c1cc2cc(C3=CCCN(C(=O)CCn4ccnn4)C3)cc(-c3cc(C(F)(F)F)nn3C)c2o1` [Example I-855], the IC50 is less than 100 nM.

In the case of `CCOc1ccncc1-c1cc(C2=CCCN(C(=O)CCn3ccnn3)C2)c(F)c2[nH]c(C(=O)N3CCN(c4cncnc4OC)CC3)cc12` [Example I-470], the IC50 is less than 100 nM.

On to `CN(C)C(=O)c1cc2c(F)c(C3=CCCN(C(=O)CCn4ccnn4)C3)ccc2o1` [Example I-1052], for which the IC50 is less than 100 nM.
